Results from publication PMC5557891, “Time-lapse crystallography snapshots of a double-strand break repair polymerase in action” (Nature Communications, 2017).

Molecular target: T1, pol μ (truncated human wild-type DNA polymerase μ) (Homo sapiens, UniProt Q9NP87, DEL398-410)
T1 construct: gene POLM; recalled: residues about 132-494; loop2 'previously truncated to improve crystallizability' (between Pro397 and Ser411; recalled deletion Pro398-Pro410); GST fusion from pGEXM, tag cut on resin with TEV; E. coli BL21(DE3)CodonPlus-RIPL; parent model PDB 4M04
Test: time-lapse X-ray crystallography
Assay type: binding
Conditions: product complex after in crystallo TTP insertion into gapped DNA; 10 mM MgCl2 (60 min, 2.02 Å) or 10 mM MnCl2; 4 °C, pH 7.5

T1 sequence (Q9NP87 with tags, fused parts or gaps DEL398-410): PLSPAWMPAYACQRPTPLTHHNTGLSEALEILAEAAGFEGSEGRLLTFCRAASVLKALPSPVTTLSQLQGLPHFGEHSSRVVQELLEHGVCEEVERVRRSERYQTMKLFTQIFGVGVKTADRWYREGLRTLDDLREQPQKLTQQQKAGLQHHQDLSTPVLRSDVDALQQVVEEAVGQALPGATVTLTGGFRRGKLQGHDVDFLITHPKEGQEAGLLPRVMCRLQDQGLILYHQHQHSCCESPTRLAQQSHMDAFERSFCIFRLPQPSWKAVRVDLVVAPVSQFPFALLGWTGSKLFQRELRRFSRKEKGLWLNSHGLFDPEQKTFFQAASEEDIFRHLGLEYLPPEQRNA

O=P(O)(O)OP(=O)(O)O [PPi]
time-lapse X-ray crystallography: The position of Pβ of the PPi product is identical to that expected after bond cleavage
